The record followed here is patent US20180194762A1 (Pharmacyclics LLC, priority 2017, published 2018).

Assay [1] addresses T1, Btk (Homo sapiens, UniProt Q06187).
T1 construct: purified from insect cells as a full-length construct containing a N-terminal 6X-His tag; His6 (N); made in house; host or cells: insect cells (Method C)
The experiment in a line: Btk in vitro inhibitory activity (one of Method A TR-FRET, Method B electrophoretic mobility shift, Method C radiometric filter binding). The format is biochemical. The protocol:
Example 62a: Btk In Vitro Inhibitory Activity (Method A)
Btk kinase activity is determined using a time-resolved fluorescence resonance energy transfer (TR-FRET) methodology. Measurements are performed in a reaction volume of 50 μL using 96-well assay plates. […] The reaction is quenched by the addition of 1.2 equivalents of EDTA (relative to divalent cation) in 25 μL of 1× Lance buffer (Perkin-Elmer). Streptavidin-APC (Perkin-Elmer) and Eu-labeled p-Tyr100 antibody (Perkin-Elmer) in 1× Lance buffer are added in a 25 μL volume to give final concentrations of 100 nM and 2.5 nM, respectively, and the mixture is allowed to incubate for one hour. The TR-FRET signal is measured on a multimode plate reader with an excitation wavelength (λEx) of 330 nm and detection wavelengths (λEm) of 615 and 665 nm. Activity is determined by the ratio of the fluorescence at 665 nm to that at 615 nm. For each compound, enzyme activity is measured at various concentrations of compound. Negative control reactions are performed in the absence of inhibitor in replicates of six, and two no-enzyme controls are used to determine baseline fluorescence levels. Inhibition constants, Ki(app), were obtained using the program BatchKi (Kuzmic et al. (2000), Anal. Biochem. 286:45-50). IC50s are obtained according to the equation:
IC50={Ki(app)/(1+[ATP]/Km^ATP)}+[E]total/2;
For all kinases, [ATP]=Km^ATP, [Btk]total=0.5 nM and [Lck]total=6 nM.
Example 62b: Btk In Vitro Inhibitory Activity (Method B)
Kinase activity is measured in vitro using electrophoretic mobility shift assay. The kinase reactions are assembled in a total volume of 25 μL in 384 well plates. The reactions comprise: BTK enzyme (1 nM, N-terminal His6-tagged, recombinant, full-length, human BTK purified from baculovirus Sf21 insect cell system, 293HEK, or other suitable source), inhibitor, ATP, fluorescently labeled peptide substrate (1 μM, FAM-GEEPLYWSFPAKKK-NH2) in a reaction buffer composed of 100 mM HEPES, pH7.5, 5 mM MgCl2 1 mM DTT, 0.1% bovine serum albumin, 0.01% Triton X-100, and 1% DMSO. The reaction is incubated and is quenched by the addition of termination buffer (100 mM HEPES, pH 7.5, 0.01% Triton X-100, 30 mM EDTA). The terminated reactions are analyzed using a 12 channel LabChip® 3000 microfluidic detection instrument (Caliper Life Sciences). The enzymatic phosphorylation of the peptide results in a change in net charge, enabling electrophoretic separation of product from substrate peptide. As substrate and product peptides are separated, two peaks of fluorescence are observed. Change in the relative fluorescence intensity of the substrate and product peaks is the parameter measured, reflecting enzyme activity. In the presence of an inhibitor, the ratio between product and substrate is altered: the signal of the product decreases, while the signal of the substrate increases.
Activity in each sample is determined as the product to sum ratio (PSR):P/(S+P), where P is the peak height of the product peptide and S is the peak height of the substrate peptide. For each compound, enzyme activity is measured at various concentrations (12 concentrations of compound spaced by 3× dilution intervals). Negative control samples (0%—inhibition in the absence of inhibitor) and positive control samples (100%—inhibition, in the presence of 20 mM EDTA) are assembled in replicates of four and are used to calculate %—inhibition values for each inhibitor at each concentration. Percent inhibition (Pinh) is determined using following equation:
Pinh=(PSR0%−PSRinh)/(PSR0%−PSR100%)*100, where PSRinh is the product sum ratio in the presence of inhibitor, PSR0% is the average product sum ration in the absence of inhibitor and PSR100% is the average product sum ratio in 100%—inhibition control samples.
The IC50 values of inhibitors are determined by 4 parameter sigmoidal dose-response model fitting of the inhibition curves (Pinh versus inhibitor concentration) using XLfit 4 software. […]
On the technique in general: A gel shift assay detects complexes by their altered migration in electrophoresis.

In assay [2] the target is T2, TEC (Homo sapiens, UniProt P42680).
T2 sequence (P42680 1-631): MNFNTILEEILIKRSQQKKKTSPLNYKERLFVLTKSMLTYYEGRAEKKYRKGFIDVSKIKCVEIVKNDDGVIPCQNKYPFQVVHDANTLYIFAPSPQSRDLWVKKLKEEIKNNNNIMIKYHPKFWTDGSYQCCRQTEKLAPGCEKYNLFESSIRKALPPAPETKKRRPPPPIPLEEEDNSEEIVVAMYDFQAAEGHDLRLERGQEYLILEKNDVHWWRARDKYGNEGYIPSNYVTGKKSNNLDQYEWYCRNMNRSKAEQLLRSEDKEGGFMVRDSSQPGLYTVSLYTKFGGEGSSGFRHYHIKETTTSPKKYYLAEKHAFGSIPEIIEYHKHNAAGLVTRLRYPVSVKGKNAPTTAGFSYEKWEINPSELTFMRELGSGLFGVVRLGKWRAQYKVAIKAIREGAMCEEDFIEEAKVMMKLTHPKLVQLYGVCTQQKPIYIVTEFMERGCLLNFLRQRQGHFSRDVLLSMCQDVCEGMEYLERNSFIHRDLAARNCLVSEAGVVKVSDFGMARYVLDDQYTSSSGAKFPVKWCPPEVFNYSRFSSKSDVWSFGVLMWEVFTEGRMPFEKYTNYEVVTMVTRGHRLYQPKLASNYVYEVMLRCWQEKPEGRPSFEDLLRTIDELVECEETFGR
The experiment in a line: Inhibition of a panel of kinases (in vitro HotSpot kinase assay, 33P-ATP, 1 μM ATP). To be noted: for pIC50: HotSpot kinase assay, 1 μM ATP; for TEC/Btk: ratio of TEC IC50 to Btk IC50 (selectivity). In kind it is biochemical. The protocol: Example 63: Inhibition of a Panel of Kinases The degree of inhibition of a panel of kinases is determined using the in vitro HotSpot kinase assay (purified enzymes, ^33P-ATP, an appropriate substrate and 1 μM ATP).

Setting [3] is: wild-type Btk, read-out: Btk-WT IC50.
Where [4] appears, read: method is one of A, B or C, not stated which, read-out: IC50 values against Btk.

SMILES strings stand for the structures. pIC50: −log10 of the molar value. Read-outs that look alike come from different tables or passages of the source.

T1 sequence (Q06187 whole entry): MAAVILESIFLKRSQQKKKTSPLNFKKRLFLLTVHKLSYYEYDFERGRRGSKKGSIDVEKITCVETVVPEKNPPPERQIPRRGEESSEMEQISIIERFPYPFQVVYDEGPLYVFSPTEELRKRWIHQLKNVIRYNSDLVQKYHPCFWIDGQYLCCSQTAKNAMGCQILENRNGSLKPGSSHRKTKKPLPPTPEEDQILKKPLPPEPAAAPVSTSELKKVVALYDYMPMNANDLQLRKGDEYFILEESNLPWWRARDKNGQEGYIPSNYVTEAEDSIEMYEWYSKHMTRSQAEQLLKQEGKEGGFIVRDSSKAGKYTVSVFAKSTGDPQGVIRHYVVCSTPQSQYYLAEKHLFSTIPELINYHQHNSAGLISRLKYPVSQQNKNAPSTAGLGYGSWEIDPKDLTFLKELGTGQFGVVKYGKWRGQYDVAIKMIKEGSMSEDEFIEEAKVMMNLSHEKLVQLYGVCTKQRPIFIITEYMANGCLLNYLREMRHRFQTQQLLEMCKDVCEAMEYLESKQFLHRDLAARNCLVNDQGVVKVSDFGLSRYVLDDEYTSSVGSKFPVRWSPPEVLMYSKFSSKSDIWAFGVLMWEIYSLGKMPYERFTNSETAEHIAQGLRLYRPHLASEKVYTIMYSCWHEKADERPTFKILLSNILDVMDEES

Take `C[C@H](NC(=O)c1noc(C(C)(C)C)n1)c1ccc(-c2ccnc3[nH]nc(N[C@@H]4CCN(C=O)C4)c23)cc1` [Example 96, 5-tert-butyl-N-[(1S)-1-[4-(3-{[(3R)-1-formylpyrrolidin-3-yl]amino}-1H-pyrazolo[3,4-b]pyridin-4-yl)phenyl]ethyl]-1,2,4-oxadiazole-3-carboxamide]: the pIC50 in assay [1] (setting [3]) was less than 5.00; in assay [2] it was 5.02. `CC(C)(C)c1ccc(C(=O)NCc2ccc(-c3ccnc4[nH]nc(N[C@H]5CCN(C=O)C5)c34)cc2F)cc1` [Example 61, 4-tert-butyl-N-{[2-fluoro-4-(3-{[(3S)-1-formylpyrrolidin-3-yl]amino}-1H-pyrazolo[3,4-b]pyridin-4-yl)phenyl]methyl}benzamide]: the pIC50 in assay [1] (setting [3]) was 7.47; in assay [2], 5.23. Besides, the TEC/Btk in assay [2] came out at 174. With `CC(C)(C)c1ccc2c(c1)CCN(Cc1ccc(-c3ccnc4[nH]nc(N[C@@H]5CCN(C=O)C5)c34)cc1F)C2=O` [Compound 60, (3R)-3-[(4-{4-[(6-tert-butyl-1-oxo-1,2,3,4-tetrahydroisoquinolin-2-yl)methyl]-3-fluorophenyl}-1H-pyrazolo[3,4-b]pyridin-3-yl)amino]pyrrolidine-1-carbaldehyde], the values for the negative logarithm of the IC50 (pIC50) in assay [1] (setting [3]) and in assay [2] were 7.68 and 5.13, respectively. Take `CC(C)(C)c1cc(C(=O)NCc2ccc(-c3ccnc4[nH]nc(N[C@H]5CC[C@H](O)CC5)c34)cc2F)no1` [Compound 27, 5-tert-butyl-N-{[2-fluoro-4-(3-{[(1r,4r)-4-hydroxycyclohexyl]amino}-1H-pyrazolo[3,4-b]pyridin-4-yl)phenyl]methyl}-1,2-oxazole-3-carboxamide]: the negative-log IC50 (pIC50) in assay [1] (setting [3]) was 7.35. In assay [2], the pIC50 is 5.20 and the TEC/Btk stood at 142. On to `CC(C)(C)c1nc(C(=O)NC2(c3ccc(-c4ccnc5[nH]nc(NC6CCCN(C=O)C6)c45)cc3)CC2)no1` (stereo not shown) [Example 271, 5-tert-butyl-N-[1-(4-{3-[(1-formylpiperidin-3-yl)amino]-1H-pyrazolo[3,4-b]pyridin-4-yl}phenyl)cyclopropyl]-1,2,4-oxadiazole-3-carboxamide], for which the negative logarithm of the IC50 (pIC50) in assay [1] (setting [3]) was 6.95. Moreover, in assay [2], the pIC50 was 5.23 and the TEC/Btk came to 053. Take `CC(C)(C)c1nc(C(=O)NCc2ccc(-c3ccnc4[nH]nc(O[C@@H]5CCN(C=O)C5)c34)cc2F)no1` [Example 273, 5-tert-butyl-N-[(2-fluoro-4-{3-[(1-formylpyrrolidin-3-yl)oxy]-1H-pyrazolo[3,4-b]pyridin-4-yl}phenyl)methyl]-1,2,4-oxadiazole-3-carboxamide]: the pIC50 in assay [1] (setting [3]) is 8.42. For the same compound, in assay [2], the pIC50 was 5.96 and the TEC/Btk is 287. Regarding `CC(C)(C)c1noc(C(=O)NCc2ccc(-c3ccnc4[nH]nc(N5CCCC5=O)c34)cc2F)n1` [Example 245, 3-tert-butyl-N-({2-fluoro-4-[3-(2-oxopyrrolidin-1-yl)-1H-pyrazolo[3,4-b]pyridin-4-yl]phenyl}methyl)-1,2,4-oxadiazole-5-carboxamide], in assay [1] (setting [3]), the negative-log IC50 (pIC50) was 6.84.

As for `C[C@@H](NC(=O)c1nc(C(C)(C)C)no1)c1ccc(-c2ccnc3[nH]nc(NC4CCCCC4)c23)cc1` [Example 202, 3-tert-butyl-N-[(1R)-1-{4-[3-(cyclohexylamino)-1H-pyrazolo[3,4-b]pyridin-4-yl]phenyl}ethyl]-1,2,4-oxadiazole-5-carboxamide], the pIC50 in assay [1] (setting [3]) was 7.51.

`C=CC(=O)N1CC[C@@H](Nc2n[nH]c3nccc(-c4cccc(NC(=O)c5ccc(C(C)(C)C)cc5)c4C)c23)C1` [Example 9, 4-tert-butyl-N-[2-methyl-3-(3-{[(3R)-1-(prop-2-enoyl)pyrrolidin-3-yl]amino}-1H-pyrazolo[3,4-b]pyridin-4-yl)phenyl]benzamide]: the negative-log IC50 (pIC50) in assay [1] (setting [4]) is more than 8.00. Turning to `CN1CCN(c2n[nH]c3nccc(-c4ccc(CNC(=O)c5nc(C(C)(C)C)no5)c(F)c4)c23)C(=O)C1=O` [Example 381, 3-tert-butyl-N-({2-fluoro-4-[3-(4-methyl-2,3-dioxopiperazin-1-yl)-1H-pyrazolo[3,4-b]pyridin-4-yl]phenyl}methyl)-1,2,4-oxadiazole-5-carboxamide], in assay [1] (setting [3]), the negative-log IC50 (pIC50) is 6.74.

As to `C[C@H](NC(=O)c1noc(C(C)(C)C)n1)c1ccc(-c2ccnc3[nH]nc(N[C@@H]4CCNC4)c23)cc1F` [Example 290, 5-tert-butyl-N-{(1S)-1-[2-fluoro-4-(3-{[(3R)-pyrrolidin-3-yl]amino}-1H-pyrazolo[3,4-b]pyridin-4-yl)phenyl]ethyl}-1,2,4-oxadiazole-3-carboxamide], in assay [1] (setting [3]), the negative logarithm of the IC50 (pIC50) is 7.09. As for `CC(C)(C)c1nc(C(=O)NCc2ccc(-c3ccnc4[nH]nc(NC5CCNC5)c34)cc2F)no1` (stereo in doubt) [Example 50], the pIC50 in assay [1] (setting [4]) was more than 8.00. In the case of `C[C@H]1CC[C@@H](Nc2n[nH]c3nccc(-c4ccc(CNC(=O)c5noc(C(C)(C)C)n5)cc4CO)c23)CN1C(=O)N(C)C` [Example 251, (2S,5R)-5-({4-[4-{[(5-tert-butyl-1,2,4-oxadiazole-3-carbonyl)amino]methyl}-2-(hydroxymethyl)phenyl]-1H-pyrazolo[3,4-b]pyridin-3-yl}amino)-N,N,2-trimethylpiperidine-1-carboxamide], in assay [1] (setting [3]), the pIC50 was 7.19.

For the compound `CN(C)C(=O)N1CC[C@@H](Nc2n[nH]c3nccc(-c4ccnc(N5CCn6c(cc7c6CC(C)(C)C7)C5=O)c4CO)c23)C1` [Example 299, (3R)-3-({4-[2-(7,7-dimethyl-1-oxo-1,3,4,6,7,8-hexahydro-2H-cyclopenta[4,5]pyrrolo[1,2-a]pyrazin-2-yl)-3-(hydroxymethyl)pyridin-4-yl]-1H-pyrazolo[3,4-b]pyridin-3-yl}amino)-N,N-dimethylpyrrolidine-1-carboxamide], the pIC50 in assay [1] (setting [3]) was 6.76.

In the case of `CC(C)Cc1cc(C(=O)NCc2ccc(-c3ccnc4[nH]nc(N[C@@H]5CCCN(C(=O)N(C)C)[C@@H]5C)c34)cc2F)no1` [Example 306, (2R,3R)-3-({4-[3-fluoro-4-({[5-(2-methylpropyl)-1,2-oxazole-3-carbonyl]amino}methyl)phenyl]-1H-pyrazolo[3,4-b]pyridin-3-yl}amino)-N,N,2-trimethylpiperidine-1-carboxamide], the negative-log IC50 (pIC50) in assay [1] (setting [3]) was 6.27.

What is called pIC50 is −log10 of the IC50, conventionally taken in molar units.
